The test system of test [1] is Molt-4 cells. Put plainly: Cell viability counter screen (CellTiter-Glo) in Molt-4 cells. Particulars: 24 hours, 10% Human Serum. In kind it is cell-based. On the procedure: The acute lymphoblastic leukemia (ALL) human cell line RS4;11 (ATCC, Manassas VA) was used as the primary human cell line to assess the cellular activity of compound of the present Examples in vitro and their efficacy in vivo. […] The acute lymphoblastic leukemia cell line Molt-4, which is derived from immature T-lymphoid cells (T-ALL), was used as a counter screen assay.
3000 Cells (0.1×10^6/mL) were seeded in each well of 384-well plate and were treated for 24 hours in a humidified chamber with 5% CO2. Cell viability was determined by CellTiter-Glo as described by the manufacturer's instructions (Promega Corporation, Madison, WI, USA).

Test [2] deals with Bcl-2 protein (Homo sapiens (Human), UniProt P10415). Put plainly: TR-FRET binding assay, Bcl-2. Particulars: F-Bak peptide probe, GST-Bcl-2. On the procedure:
(§1) Determination of the utility of compounds having Formula (I) or Formula (II) as binders to and inhibitors of anti-apoptotic Bcl-2 proteins was performed using the Time Resolved-Fluorescence Resonance Energy Transfer (TR-FRET) Assay. Tb-anti-GST antibody was purchased from Invitrogen (Catalog No. PV4216).
A Bcl-2 human encoding sequence was cloned into a pET41A vector (Novagen). The protein was expressed with E. coli. BL21(DE3)-T1R strain in OETB autoinduction medium at 30° C. for 25 hours. The cell pellets were resuspended in lysis buffer (50 mM Tris, 140 mM NaCl, 1 mM DTT, 10% Glycerol, 2 mM MgCl2, pH 7.3) and lysed with Microfluidizer. The Bcl-2 protein in clarified cell-lysate was purified with affinity chromatography (GST and Ni-NTA). The eluate was loaded onto a Superdex 75 column and further purified with a Q Sepharose column. The protein was purified on a phenyl hydrophobic interaction column and dialyzed in the storage buffer (50 mM Tris, 50 mM NaCl, 2 mM DTT, pH 7.5) and stored at −80° C.
(§2) […] of a protein (Bcl-2 or Bcl-xL)/probe/antibody mixture pre-equilibrated for one hour in assay buffer was added to each well at final concentrations listed in Table 6 below.
(§3) The samples were then mixed on a shaker for 1 minute and equilibrated for an additional 3 hours at room temperature. For each assay plate, a probe/antibody and protein/antibody/probe mixture were included as a negative and a positive control, respectively. Fluorescence was measured on the Envision (Perkin Elmer) using a 340/35 nm excitation filter and 520/525 (F-Bak) and 495/510 nm (Tb-labeled anti-GST antibody) emission filters. Inhibition constants (Ki) were determined using Wang's equation (Wang FEBS Lett. 1995, 360, 111-114). The TR-FRET assay can be performed in the presence of varying concentrations of human serum (HS) to determine apparent half maximal inhibitory concentration (IC50) after HS protein binding.
(§4) Inhibition constants were determined using Wang's equation (Wang FEBS Lett. 1995, 360:111-4).

Test [3] addresses Bcl-xL protein (Homo sapiens (Human), UniProt Q07817). The test is described as follows: TR-FRET binding assay, Bcl-xL. To be noted: F-Bak peptide probe. How it is done: as §1
A human Bcl-xL encoding sequence was cloned into a pET41A vector. The protein was expressed with E. coli. BL21(DE3)-T1R strain in OETB autoinduction medium at 30° C. for 25 hours. The cell pellets were resuspended in lysis buffer (50 mM Tris, 140 mM NaCl, 1 mM DTT, 10% Glycerol, 0.1% Triton X-100, pH 7.5) and lysed with Microfluidizer. The Bcl-xL protein in clarified cell-lysate was purified with GST affinity chromatography. The eluate was dialyzed in the storage buffer (1×PBS, 10% Glycerol, 2 mM DTT, 1 mM Sodium Azide, pH 7.4) and stored at −80° C.
as §2, §3, §4

Bcl-2 protein, sequence (P10415 other isoform, or with tags, fused parts or gaps): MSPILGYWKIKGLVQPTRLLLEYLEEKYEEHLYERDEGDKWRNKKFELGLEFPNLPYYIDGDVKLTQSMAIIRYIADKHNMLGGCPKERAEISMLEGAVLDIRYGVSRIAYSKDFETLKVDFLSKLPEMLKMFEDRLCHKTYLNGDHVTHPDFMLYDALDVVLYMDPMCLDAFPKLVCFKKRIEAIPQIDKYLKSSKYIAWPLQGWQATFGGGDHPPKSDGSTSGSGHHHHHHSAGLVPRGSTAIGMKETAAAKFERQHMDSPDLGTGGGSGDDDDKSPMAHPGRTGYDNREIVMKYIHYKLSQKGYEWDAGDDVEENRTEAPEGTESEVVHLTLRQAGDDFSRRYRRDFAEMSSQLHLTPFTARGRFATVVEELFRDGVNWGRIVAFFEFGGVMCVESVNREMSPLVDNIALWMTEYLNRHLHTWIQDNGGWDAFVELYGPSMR
Bcl-xL protein, sequence (Q07817 other isoform, or with tags, fused parts or gaps): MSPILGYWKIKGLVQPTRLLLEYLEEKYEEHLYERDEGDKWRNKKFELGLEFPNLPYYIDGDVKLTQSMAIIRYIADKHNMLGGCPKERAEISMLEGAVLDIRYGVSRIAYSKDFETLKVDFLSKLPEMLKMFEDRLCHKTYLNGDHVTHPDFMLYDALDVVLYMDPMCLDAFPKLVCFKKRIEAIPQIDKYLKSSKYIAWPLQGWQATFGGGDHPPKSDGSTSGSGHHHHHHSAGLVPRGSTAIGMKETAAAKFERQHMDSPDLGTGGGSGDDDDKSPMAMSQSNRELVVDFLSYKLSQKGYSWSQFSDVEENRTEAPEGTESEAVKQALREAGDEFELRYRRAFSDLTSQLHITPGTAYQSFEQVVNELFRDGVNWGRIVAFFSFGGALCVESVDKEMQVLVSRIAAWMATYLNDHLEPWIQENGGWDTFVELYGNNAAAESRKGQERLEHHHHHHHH

The molecule `C[C@H]1CCC(CNc2ccc(S(=O)(=O)NC(=O)c3ccc(N4CCN5CC6=C(c7ccc(Cl)cc7)CC(C)(C)C[C@H]6OCCCOCC5C4)cc3N3CCCOc4nc5[nH]ccc5cc43)cc2[N+](=O)[O-])OC1` (stereo partly drawn) [Example 23, 4-((4aS,10aR)-14-(4-chlorophenyl)-12,12-dimethyl-1,2,4a,5,8,9,10a,11,13,15-decahydro-7H,12H-benzo[f]pyrazino[2,1-c][1,8]dioxa[4]azacycloundecin-3(4H)-yl)-2-(3,4-dihydro-2H-pyrrolo[3′,2′:5,6]pyrido[2,3-b][1,4]oxazepin-1(7H)-yl)-N-((4-((((2R,5S)-5-methyltetrahydro-2H-pyran-2-yl)methyl)amino)-3-nitrophenyl)sulfonyl)benzamide] yielded an EC50 in test [1] of over 10000 nM. The values for the Ki in test [2] and in test [3] were 0.634 nM and 29.7 nM, respectively.

The molecule `COC1(CNc2ccc(S(=O)(=O)NC(=O)c3ccc(N4CCN5CC6=C(c7ccc(Cl)cc7)CC(C)(C)C[C@H]6OCCCOC[C@@H]5C4)cc3N3CCCOc4nc5[nH]ccc5cc43)cc2[N+](=O)[O-])CCOCC1` [Example 26, 4-((4aS,10aR)-14-(4-chlorophenyl)-12,12-dimethyl-1,2,4a,5,8,9,10a,11,13,15-decahydro-7H,12H-benzo[f]pyrazino[2,1-c][1,8]dioxa[4]azacycloundecin-3(4H)-yl)-2-(3,4-dihydro-2H-pyrrolo[3′,2′:5,6]pyrido[2,3-b][1,4]oxazepin-1(7H)-yl)-N-((4-(((4-methoxytetrahydro-2H-pyran-4-yl)methyl)amino)-3-nitrophenyl)sulfonyl)benzamide] came in with an EC50 in test [1] of over 10000 nM. The Ki in test [2] was determined as 2.09 nM; in test [3] it was 40.3 nM.

Regarding `CC1(C)CC(c2ccc(Cl)cc2)=C2CN3CCN(c4ccc(C(=O)NS(=O)(=O)c5ccc(NC[C@@H]6CC[C@@H](O)CO6)c([N+](=O)[O-])c5)c(N5CCCOc6nc7[nH]ccc7cc65)c4)C[C@H]3COCCCO[C@@H]2C1` [Example 27, 4-((4aS,10aR)-14-(4-chlorophenyl)-12,12-dimethyl-1,2,4a,5,8,9,10a,11,13,15-decahydro-7H,12H-benzo[f]pyrazino[2,1-c][1,8]dioxa[4]azacycloundecin-3(4H)-yl)-2-(3,4-dihydro-2H-pyrrolo[3′,2′:5,6]pyrido[2,3-b][1,4]oxazepin-1(7H)-yl)-N-((4-((((2S,5R)-5-hydroxytetrahydro-2H-pyran-2-yl)methyl)amino)-3-nitrophenyl)sulfonyl)benzamide], the inhibitory constant (Ki) in test [2] was 1.72 nM; in test [3], 7.41 nM.

In the case of `COC1CO[C@H](CNc2ccc(S(=O)(=O)NC(=O)c3ccc(N4CCN5CC6=C(c7ccc(Cl)cc7)CC(C)(C)C[C@H]6OCCCOC[C@@H]5C4)cc3N3CCCOc4nc5[nH]ccc5cc43)cc2[N+](=O)[O-])C1` (stereo partly drawn) [Example 29, 4-((4aS,10aR)-14-(4-chlorophenyl)-12,12-dimethyl-1,2,4a,5,8,9,10a,11,13,15-decahydro-7H,12H-benzo[f]pyrazino[2,1-c][1,8]dioxa[4]azacycloundecin-3(4H)-yl)-2-(3,4-dihydro-2H-pyrrolo[3′,2′:5,6]pyrido[2,3-b][1,4]oxazepin-1(7H)-yl)-N-((4-((((2S)-4-methoxytetrahydrofuran-2-yl)methyl)amino)-3-nitrophenyl)sulfonyl)benzamide], the Ki in test [2] is 2.59 nM; in test [3], 22.5 nM.

With `CC1(C)CC(c2ccc(Cl)cc2)=C2CN3CCN(c4ccc(C(=O)NS(=O)(=O)c5ccc(NC[C@H]6CC[C@](C)(O)CC6)c([N+](=O)[O-])c5)c(N5CCCOc6nc7[nH]ccc7cc65)c4)C[C@H]3COCCCO[C@@H]2C1` [Example 32, 4-((4aS,10aR)-14-(4-chlorophenyl)-12,12-dimethyl-1,2,4a,5,8,9,10a,11,13,15-decahydro-7H,12H-benzo[f]pyrazino[2,1-c][1,8]dioxa[4]azacycloundecin-3(4H)-yl)-2-(3,4-dihydro-2H-pyrrolo[3′,2′:5,6]pyrido[2,3-b][1,4]oxazepin-1(7H)-yl)-N-((4-((((1r,4r)-4-hydroxy-4-methylcyclohexyl)methyl)amino)-3-nitrophenyl)sulfonyl)benzamide], the inhibition constant (Ki) was determined as 0.397 nM in test [2] and 15.8 nM in test [3].

On to `COCCO[C@H]1CC[C@H](CNc2ccc(S(=O)(=O)NC(=O)c3ccc(N4CCN5CC6=C(c7ccc(Cl)cc7)CC(C)(C)C[C@H]6OCCCOC[C@@H]5C4)cc3N3CCCOc4nc5[nH]ccc5cc43)cc2[N+](=O)[O-])OC1` [Example 35, 4-((4aS,10aR)-14-(4-chlorophenyl)-12,12-dimethyl-1,2,4a,5,8,9,10a,11,13,15-decahydro-7H,12H-benzo[f]pyrazino[2,1-c][1,8]dioxa[4]azacycloundecin-3(4H)-yl)-2-(3,4-dihydro-2H-pyrrolo[3′,2′:5,6]pyrido[2,3-b][1,4]oxazepin-1(7H)-yl)-N-((4-((((2R,5S)-5-(2-methoxyethoxy)tetrahydro-2H-pyran-2-yl)methyl)amino)-3-nitrophenyl)sulfonyl)benzamide], for which the Ki in test [2] is 0.0891 nM; in test [3], 23.1 nM.

The molecule `CC1(C)CC(c2ccc(Cl)cc2)=C2CN3CCN(c4ccc(C(=O)NS(=O)(=O)c5cnc(OC[C@H]6CC[C@](C)(O)CC6)c(Cl)c5)c(N5CCCOc6nc7[nH]ccc7cc65)c4)C[C@H]3COCCCO[C@@H]2C1` [Example 42, N-((5-chloro-6-(((1r,4r)-4-hydroxy-4-methylcyclohexyl)methoxy)pyridin-3-yl)sulfonyl)-4-((4aS,10aR)-14-(4-chlorophenyl)-12,12-dimethyl-1,2,4a,5,8,9,10a,11,13,15-decahydro-7H,12H-benzo[f]pyrazino[2,1-c][1,8]dioxa[4]azacycloundecin-3(4H)-yl)-2-(3,4-dihydro-2H-pyrrolo[3′,2′:5,6]pyrido[2,3-b][1,4]oxazepin-1(7H)-yl)benzamide] had an EC50 in test [1] of over 10000 nM.

As for `CC1(C)CC(c2ccc(Cl)cc2)=C2CN3CCN(c4ccc(C(=O)NS(=O)(=O)c5ccc(OC[C@H]6CC[C@](C)(O)CC6)c(Cl)c5)c(N5CCCOc6nc7[nH]ccc7cc65)c4)C[C@H]3COCCCO[C@@H]2C1` [Example 43, N-((3-chloro-4-(((1r,4r)-4-hydroxy-4-methylcyclohexyl)methoxy)phenyl)sulfonyl)-4-((4aS,10aR)-14-(4-chlorophenyl)-12,12-dimethyl-1,2,4a,5,8,9,10a,11,13,15-decahydro-7H,12H-benzo[f]pyrazino[2,1-c][1,8]dioxa[4]azacycloundecin-3(4H)-yl)-2-(3,4-dihydro-2H-pyrrolo[3′,2′:5,6]pyrido[2,3-b][1,4]oxazepin-1(7H)-yl)benzamide], in test [1], the EC50 was over 10000 nM.

On to `CC1(C)CC(c2ccc(Cl)cc2)=C2CN3CCN(c4ccc(C(=O)NS(=O)(=O)c5cnc(OC[C@H]6CC[C@@](C)(O)CC6)c(Cl)c5)c(N5CCCOc6nc7[nH]ccc7cc65)c4)C[C@H]3COCCCO[C@@H]2C1` [Example 50, N-((5-chloro-6-(((1s,4s)-4-hydroxy-4-methylcyclohexyl)methoxy)pyridin-3-yl)sulfonyl)-4-((4aS,10aR)-14-(4-chlorophenyl)-12,12-dimethyl-1,2,4a,5,8,9,10a,11,13,15-decahydro-7H,12H-benzo[f]pyrazino[2,1-c][1,8]dioxa[4]azacycloundecin-3(4H)-yl)-2-(3,4-dihydro-2H-pyrrolo[3′,2′:5,6]pyrido[2,3-b][1,4]oxazepin-1(7H)-yl)benzamide], for which, in test [1], the EC50 was over 10000 nM.
